From US20180125074A1, “PESTICIDAL COMPOSITIONS AND RELATED METHODS” (priority 2015, published 2018)

Test system: green peach aphids (Myzus persicae)
Test: Pesticidal activity against green peach aphid on cabbage plants after soil treatment
Format: in vivo
Details: for % Control at DAT of 21 days: Table 6; for % Control at DAT of 21 days / % Control at DAT of 28 days: GEROPON SDS 384 ppm
Protocol: Each tested compositions was prepared by mixing a predetermined amount of the CLOSER® SC insecticide (a sulfoxaflor concentrate having a sulfoxaflor concentration of 240 g/L) with a predetermined amount of sodium dioctylsulfosuccinate GEROPON® SDS anionic surfactant in an aqueous medium.
The compositions containing different amounts of sulfoxaflor and sodium dioctylsulfosuccinate GEROPON® SDS surfactant were prepared as shown in TABLE 4. For example, the “Sulfoxaflor at 100 ppm” composition contained about 0.043% weight of sulfoxaflor based on the total weight of the composition (i.e., 100 ppm of sulfoxaflor per one gram of final soil mixture). “Sulfoxaflor at 100 ppm+GEROPON®” composition contained about 0.043% weight of sulfoxaflor based on the total weight of the composition (i.e., 100 ppm of sulfoxaflor per one gram of final soil mixture), and about 0.225% weight of sodium dioctylsulfosuccinate GEROPON® SDS surfactant based on the total weight of the composition (i.e., 384 ppm per one gram of the final soil mixture; 1500 ppm per one gram of the total soil liquid).
The imidacloprid pesticide PROVADO® 1.6 from Bayer CropScience LP (North Carolina, USA) was used as a standard commercial pesticidal composition for aphid control. The imidacloprid pesticide PROVADO® 1.6 was tested at three different loadings: 100 ppm, 25 ppm, and 6.25 ppm per gram of final soil mixture. In this EXAMPLE 6, water was tested as a control composition. Furthermore, an aqueous solution of sodium dioctylsulfosuccinate GEROPON® SDS anionic surfactant was tested.
Cabbage plants (Brassica oleracea capitata L) of uniform size (two new leaf stage) infested with green peach aphids (Myzus persicae) (“GPA”) were used as the study models according to the following procedure:
Cabbage seeds were planted in 3-inch pots containing a peat-based METRO MIX 360® potting soil available from SUN GRO® Horticulture Canada, Ltd. The seeds were propagated in greenhouse zone G4, located in the R&D building of Dow AgroSciences (Indianapolis, Ind., USA), at 26° C. with a relative humidity of 53%. Natural light was supplemented with 1,000-watt metal halide overhead lamps with an average illumination of about 500 μE/m^2·s photosynthetic active radiation for 16 consecutive hours each day.
Each of the 1-ounce clear cups was filled with about 30 grams of the inoculated Midwest field soil having the components as shown in TABLE 5. […] The soil moisture of the Midwest field soil was about 15% as measured by Mettler LJ16 Moisture Analyzer (15 minutes and 100° C.).
The Midwest field soil in each selected 1-ounce cup was treated with about 9 mL of the selected composition using a 10 mL pipette. Deionized water was used as a control. The remainders of the 1-ounce cups were capped, and a small hole was poked into each lid to provide air flow. The remainders of the 1-ounce cups were stored in a controlled environment at 26° C. and covered with a black plastic bag to prevent any light from entering, until being used for the test.
Cabbage plants were gently removed from the 3-inch pots, and the plant roots were washed with water to remove any excess soil. Then, the cabbage plant was transplanted into the 1-ounce cup containing the treated Midwest field soil (one cabbage plant per one 1-ounce cup). The plants were watered as needed after being transplanted.
At the selected number of days after treating the Midwest field soil with the composition (i.e., numbers of days after the soil treatment, “DAT”), the cabbage plant in each 1-ounce cup was infested with GPA by placing a piece of squash leaf infested with about 25 aphids on each cabbage plant. The plants were then placed in a controlled environment at 26° C. for three days.
Five different evaluation times were performed: DAT of 0, 7, 14, 21, or 28 days. For example, for the DAT of zero (0) day, the cabbage plant was infested with GPA on the same day that it was transplanted into the treated Midwest field soil. […]

[1] = dose rate: sulfoxaflor 6.25 ppm, combination 6.25 + 384 ppm
[2] = Table 7, dose rate: sulfoxaflor 6.25 ppm, combination 6.25 + 384 ppm
[3] = Table 8, dose rate: sulfoxaflor 25 ppm, combination 25 + 384 ppm

## C[C@@H](c1ccc(C(F)(F)F)nc1)[S@](C)(=O)=NC#N (racemic) [Sulfoxaflor, [methyl(oxo) {1-[6-(trifluoromethyl)-3-pyridyl]ethyl}-λ^6-sulfanylidene]cyanamide, reference compound]
[1]
  % Control at DAT of 21 days: 0%
[2]
  % Control at DAT of 28 days: 0%
[3]
  % Control at DAT of 28 days: 36.39%

## CCCCCCCCOC(=O)CC(C(=O)OCCCCCCCC)S(=O)(=O)O.[Na] (stereo not shown) [GEROPON ® SDS Surfactant, Sodium dioctyl sulfosuccinate]
FIG. 6, cabbage in treated Midwest soil, counted three days after infestation, loading as named in the composition
  number of live GPA aphids at DAT of 21 days: 30 to 40
[1]
  % Control at DAT of 21 days: 0%
[2]
  % Control at DAT of 28 days: 0%
[3]
  % Control at DAT of 28 days: 0%
